Assay results as given in patent US20070155955A1, “Amylin aggregation inhibitors and use thereof” (APPLIED RESEARCH SYSTEMS ARS HOLDING N.V., priority 2003, published 2007).
No end group written: not given here.

Assay: In vitro peptide solubility assay (qualitative, pellet after centrifugation)
Format: physicochemical
Details: Tris buffer, pH 7.4; read-out: Solubilty
Experimental: Solubility of peptides of the invention was obtained using a qualitative assay where the peptide was dissolved in Tris buffer, pH 7.4 at 1, 5, or 10 mg/ml, vortexed briefly, and then centrifuged at 16,000 g for 30 min.

Row | solubility [µg/mL] | Substance
1 | ≥ 2000 | DFGAILD [SEQ ID NO. 12]
2 | < 200 | NFGAILS [SEQ ID NO. 10]
3 | < 1000 | NFGAPLS [SEQ ID NO. 11]

The next lines start with the substance.

Row | Substance | solubility [µg/mL]
4 | Ac-DFGAPL-NH2 (N-terminus and C-terminus assumed) [SEQ ID NO. 3] | > 10000
5 | DFGAPLD [SEQ ID NO. 4] | > 10000
6 | DFGAPL [SEQ ID NO. 2] | > 10000
